Experimental data from US20250230172A1 (Vanqua Bio, Inc., priority 2021, published 2025).

target: T1, GCase (Homo sapiens, UniProt P04062); assay: live cell PFB assay in HELA cells for activation of GCase; type: cell-based
T1 construct: endogenous in cells; host or cells: HeLa cells
T1 sequence (P04062 40-536): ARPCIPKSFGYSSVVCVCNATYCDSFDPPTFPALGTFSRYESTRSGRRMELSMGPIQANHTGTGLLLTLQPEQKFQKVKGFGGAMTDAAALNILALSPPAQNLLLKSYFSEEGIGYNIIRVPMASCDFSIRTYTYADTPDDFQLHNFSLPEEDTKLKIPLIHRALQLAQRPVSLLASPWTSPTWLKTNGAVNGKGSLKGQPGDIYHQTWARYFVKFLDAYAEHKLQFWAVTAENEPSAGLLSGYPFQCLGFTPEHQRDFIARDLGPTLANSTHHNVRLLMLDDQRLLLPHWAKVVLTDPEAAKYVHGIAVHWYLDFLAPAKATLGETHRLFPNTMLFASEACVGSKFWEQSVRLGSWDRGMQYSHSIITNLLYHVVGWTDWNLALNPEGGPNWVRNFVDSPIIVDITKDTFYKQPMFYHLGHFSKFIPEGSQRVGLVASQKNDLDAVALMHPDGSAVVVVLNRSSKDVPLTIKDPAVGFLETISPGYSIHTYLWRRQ
Description: Exemplary compounds were evaluated for activation of GCase in a live cell PFB assay in HELA cells (essentially as described in Ysselstein et al., “LRRK2 kinase activity regulates lysosomal glucocerebrosidase in neurons derived from Parkinson's disease patients” Nature Communications (2019) 10:5570). […] EC50 ranges: A: <10 μM; B: >10-50 μM; C: >50-100 μM; D: >100 μM.

EC50 [µM] | Structure (SMILES)
< 10 | FC(F)Cn1ncc2ncc(N[C@@H]3C[C@@H]4CN(c5ccc(C(F)(F)F)cn5)C[C@@H]4C3)nc21 [Compound 51, (3aR,5S,6aS)—N-[1-(2,2-difluoroethyl)-1H-pyrazolo[3,4-b]pyrazin-6-yl]-2-[5-(trifluoromethyl)pyridin-2-yl]-octahydrocyclopenta[c]pyrrol-5-amine]
50 to 100 | FC(F)Cn1ncc2ncc(N3C[C@@H]4CN(c5cccc(C(F)(F)F)n5)C[C@H]4C3)nc21 (racemic) [Compound 46, rac-2-[(3aR,6aR)-5-[1-(2,2-difluoroethyl)-1H-pyrazolo[3,4-b]pyrazin-6-yl]-octahydropyrrolo[3,4-c]pyrrol-2-yl]-6-(trifluoromethyl)pyridine]
10 to 50 | FC(F)Cn1ncc2ncc(N3C[C@@H]4CCN(c5cc(C(F)(F)F)ccn5)[C@@H]4C3)nc21 (racemic) [Compound 60, rac-2-[(3aR,6aR)-5-[1-(2,2-difluoroethyl)-1H-pyrazolo[3,4-b]pyrazin-6-yl]-octahydropyrrolo[2,3-c]pyrrol-1-yl]-4-(trifluoromethyl)pyridine]
< 10 | FC(F)Cn1ncc2ncc(N3CC4CC(Oc5cccc(C(F)(F)F)n5)CC4C3)nc21 (stereo not drawn) [Compound 29, 2-({2-[1-(2,2-difluoroethyl)-1H-pyrazolo[3,4-b]pyrazin-6-yl]-octahydrocyclopenta[c]pyrrol-5-yl}oxy)-6-(trifluoromethyl)pyridine]
10 to 50 | CN(c1cnc2cnn(CC(F)F)c2n1)[C@H]1C[C@@H]2CN(c3cncc(C(F)(F)F)c3)C[C@@H]2C1 [Compound 54, (3aR,5S,6aS)—N-[1-(2,2-difluoroethyl)-1H-pyrazolo[3,4-b]pyrazin-6-yl]-N-methyl-2-[5-(trifluoromethyl)pyridin-3-yl]-octahydrocyclopenta[c]pyrrol-5-amine]
< 10 | FC(F)Cn1ncc2ncc(N3CC[C@H]4[C@@H]3CCN4c3cc(C(F)(F)F)ccn3)nc21 (racemic) [Compound 56, rac-2-[(3aR,6aR)-4-[1-(2,2-difluoroethyl)-1H-pyrazolo[3,4-b]pyrazin-6-yl]-octahydropyrrolo[3,2-b]pyrrol-1-yl]-4-(trifluoromethyl)pyridine]
< 10 | FC(F)Cn1ncc2ncc(N[C@@H]3C[C@@H]4CN(c5cccnc5C(F)(F)F)C[C@@H]4C3)nc21 [Compound 36, (3aR,5S,6aS)—N-[1-(2,2-difluoroethyl)-1H-pyrazolo[3,4-b]pyrazin-6-yl]-2-[2-(trifluoromethyl)pyridin-3-yl]-octahydrocyclopenta[c]pyrrol-5-amine]
< 10 | FC(F)Cn1ncc2ncc(N[C@H]3C[C@@H]4CN(c5cccnc5C(F)(F)F)C[C@@H]4C3)nc21 [Compound 37, (3aR,5R,6aS)—N-[1-(2,2-difluoroethyl)-1H-pyrazolo[3,4-b]pyrazin-6-yl]-2-[2-(trifluoromethyl)pyridin-3-yl]-octahydrocyclopenta[c]pyrrol-5-amine]
10 to 50 | FC(F)Cn1ncc2ncc(N[C@H]3C[C@@H]4CN(c5cc(C(F)(F)F)cnn5)C[C@@H]4C3)nc21 [Compound 83, 1-(2,2-difluoroethyl)-N-((3aR,5s,6aS)-2-(5-(trifluoromethyl)pyridazin-3-yl)octahydrocyclopenta[c]pyrrol-5-yl)-1H-pyrazolo[3,4-b]pyrazin-6-amine]
< 10 | FC(F)Cn1ncc2ncc(N3C[C@H]4CN(c5cc(C(F)(F)F)ccn5)C[C@H]4C3)nc21 [Compound 43, rac-2-[(3aR,6aS)-5-[1-(2,2-difluoroethyl)-1H-pyrazolo[3,4-b]pyrazin-6-yl]-octahydropyrrolo[3,4-c]pyrrol-2-yl]-4-(trifluoromethyl)pyridine]
10 to 50 | FC(F)Cn1ncc2ncc(N3C[C@H]4CCN(c5cc(C(F)(F)F)ccn5)C[C@H]4C3)nc21 (racemic) [Compound 11]
10 to 50 | FC(F)Cn1ncc2ncc(N3CC[C@H]4CN(c5cc(C(F)(F)F)ccn5)C[C@H]43)nc21 (racemic) [Compound 58, rac-2-[(3aR,6aR)-1-[1-(2,2-difluoroethyl)-1H-pyrazolo[3,4-b]pyrazin-6-yl]-octahydropyrrolo[3,4-b]pyrrol-5-yl]-4-(trifluoromethyl)pyridine]
10 to 50 | FC(F)Cn1ncc2ncc(N3C[C@@H]4CN(c5cccnc5C(F)(F)F)C[C@@H]4C3)nc21 [Compound 49, rac-3-[(3aR,6aS)-5-[1-(2,2-difluoroethyl)-1H-pyrazolo[3,4-b]pyrazin-6-yl]-octahydropyrrolo[3,4-c]pyrrol-2-yl]-2-(trifluoromethyl)pyridine]
> 100 | FC(F)Cn1ncc2ncc(N3CC[C@@H]4CN(c5ccncc5C(F)(F)F)C[C@@H]4C3)nc21 (racemic) [Compound 25]
10 to 50 | FC(F)Cn1ncc2ncc(N3CC[C@@H]4CN(c5cnccc5C(F)(F)F)C[C@@H]4C3)nc21 (racemic) [Compound 15, rac-3-[(3aR,7aS)-5-[1-(2,2-difluoroethyl)-1H-pyrazolo[3,4-b]pyrazin-6-yl]-octahydro-1H-pyrrolo[3,4-c]pyridin-2-yl]-4-(trifluoromethyl)pyridine]
< 10 | O=C1C2CN(c3cnc4cnn(CC(F)F)c4n3)CCC2CN1c1cccc(C(F)(F)F)n1 (stereo not drawn) [Compound 65, 5-(1-(2,2-difluoroethyl)-1H-pyrazolo[3,4-b]pyrazin-6-yl)-2-(6-(trifluoromethyl)pyridin-2-yl)octahydro-3H-pyrrolo[3,4-c]pyridin-3-one]
50 to 100 | FC(F)Cn1ncc2ncc(N3CCN4C[C@H](Oc5cccnc5C(F)(F)F)C[C@H]4C3)nc21 [Compound 26, 3-{[(7R,8aS)-2-[1-(2,2-difluoroethyl)-1H-pyrazolo[3,4-b]pyrazin-6-yl]-octahydropyrrolo[1,2-a]pyrazin-7-yl]oxy}-2-(trifluoromethyl)pyridine]
< 10 | FC(F)Cn1ncc2ncc(N[C@H]3C[C@@H]4CN(c5cncc(C(F)(F)F)n5)C[C@@H]4C3)nc21 [Compound 78, 1-(2,2-difluoroethyl)-N-((3aR,5s,6aS)-2-(6-(trifluoromethyl)pyrazin-2-yl)octahydrocyclopenta[c]pyrrol-5-yl)-1H-pyrazolo[3,4-b]pyrazin-6-amine]
< 10 | FC(F)Cn1ncc2ncc(N[C@H]3C[C@@H]4CN(c5ncncc5C(F)(F)F)C[C@@H]4C3)nc21 [Compound 91, 1-(2,2-difluoroethyl)-N-((3aR,5s,6aS)-2-(5-(trifluoromethyl)pyrimidin-4-yl)octahydrocyclopenta[c]pyrrol-5-yl)-1H-pyrazolo[3,4-b]pyrazin-6-amine]
< 10 | FC(F)Cn1ncc2ncc(N[C@H]3C[C@@H]4CN(c5cncc(C(F)(F)F)c5)C[C@@H]4C3)nc21 [Compound 53, (3aR,5S,6aS)—N-[1-(2,2-difluoroethyl)-1H-pyrazolo[3,4-b]pyrazin-6-yl]-2-[5-(trifluoromethyl)pyridin-3-yl]-octahydrocyclopenta[c]pyrrol-5-amine]
> 100 | FC(F)Cn1ncc2ncc(N[C@@H]3CC[C@@H]4CN(c5cccnc5C(F)(F)F)C[C@@H]4C3)nc21 (single isomer, unassigned) [Compound 75]
10 to 50 | FC(F)Cn1ncc2ncc(N3C[C@H]4CCN(c5ccc(C(F)(F)F)nc5)C[C@H]4C3)nc21 (racemic) [Compound 20, rac-5-[(3aR,7aR)-2-[1-(2,2-difluoroethyl)-1H-pyrazolo[3,4-b]pyrazin-6-yl]-octahydro-1H-pyrrolo[3,4-c]pyridin-5-yl]-2-(trifluoromethyl)pyridine]
> 100 | FC(F)Cn1ncc2ncc(N[C@H]3C[C@@H]4CN(c5nnccc5C(F)(F)F)C[C@@H]4C3)nc21 [Compound 84, 1-(2,2-difluoroethyl)-N-((3aR,5s,6aS)-2-(4-(trifluoromethyl)pyridazin-3-yl)octahydrocyclopenta[c]pyrrol-5-yl)-1H-pyrazolo[3,4-b]pyrazin-6-amine]
< 10 | FC(F)Cn1ncc2ncc(N3C[C@@H]4CN(c5cccnc5C(F)(F)F)C[C@H]4C3)nc21 (racemic) [Compound 50, rac-3-[(3aR,6aR)-5-[1-(2,2-difluoroethyl)-1H-pyrazolo[3,4-b]pyrazin-6-yl]-octahydropyrrolo[3,4-c]pyrrol-2-yl]-2-(trifluoromethyl)pyridine]
10 to 50 | O=C(c1ccc2ccn(CC3COC3)c2c1)N1CC[C@@H]2CN(c3cc(C(F)(F)F)ccn3)C[C@@H]2C1 (racemic) [Compound 9, rac-6-[(3aR,7aS)-2-[4-(trifluoromethyl)pyridin-2-yl]-octahydro-1H-pyrrolo[3,4-c]pyridine-5-carbonyl]-1-[(oxetan-3-yl)methyl]-1H-indole]
10 to 50 | FC(F)Cn1ncc2ncc(N3CC[C@@H]4CN(c5ccc(C(F)(F)F)cn5)C[C@H]4C3)nc21 (single isomer, unassigned) [Compound 68]
< 10 | FC(F)Cn1ncc2ncc(N3C[C@H]4CCN(c5cccnc5C(F)(F)F)C[C@H]4C3)nc21 (racemic) [Compound 4, rac-3-[(3aR,7aR)-2-[1-(2,2-difluoroethyl)-1H-pyrazolo[3,4-b]pyrazin-6-yl]-octahydro-1H-pyrrolo[3,4-c]pyridin-5-yl]-2-(trifluoromethyl)pyridine]
